# Assay results as given in US7678390B2, “Carbon monoxide as a biomarker and therapeutic agent” (priority 1999, dated 2010).
# Test system: RAW 264.7 macrophages
# Experiment: LPS-induced cytokine production in macrophages (ELISA, Western)
# Type: cell-based, mouse
# Details: for TNF-α: RAW 264.7 macrophages
# Text: Animals. Male C57BL/6 and IL-10 (−/−) mice were purchased from Jackson Laboratory (Bar Harbor, Me.), and allowed to acclimate for one week with rodent chow and water ad libitum. The MKK (−/−) mice were generated as previously described [Lu, et al., EMBO J. 18:1845-1857 (1999)]. Wild type littermates were used as controls. All animals were housed in accordance with guidelines from the American Association for Laboratory Animal Care and Research Protocols and were approved by the Animal Care and Use Committee of Yale University School of Medicine. Reagents. All reagents were purchased from Sigma Chemical Co. (St Louis, Mo.) unless specified otherwise. Plasmid Construct. Plasmid pSFFV/HO-1 was constructed by insertion of the rat HO-1 cDNA [Shibahara, et al., Proc. Natl. Acad. Sci. USA. 82: 7865-7869 (1985)] downstream of the Friend spleen focus-forming virus 5′ long-terminal repeat in the mammalian expression vector pSFFV/neo [Fuhlbrigge, et al, Proc. Natl. Acad. Sci. USA. 85: 5649-5653 (1988)] (kindly provided by Stanley Korsmeyer). Transfection. Stable transfections were carried out by the calcium phosphate precipitation technique as previously described [Alam, J., J. Biol. Chem. 269: 25049-25056 (1994)]. Briefly, RAW cells were plated (1×10^6/10 cm plate) and 16 h later, transfected with […] of pSFFV/neo or pSFFV/HO-1. Cells were exposed to the DNA-CaPO4 precipitate for 6 h, shocked by a 1 min treatment with glycerol in phosphate-buffered saline and cultured for an additional 24 h in complete medium before addition of G418. Transfectants were selected over a 3-week period in the presence of G418 (up to […]) and individual clones were isolated by limited dilution. Cell Culture Experimentation. RAW 264.7 mouse peritoneal macrophages were purchased from […] (Rockville, Md.) and primary culture of rat pulmonary vascular smooth muscle cells were harvested from male Sprague Dawley rats (250-300 g) as previously described [Gunther, et al., J. Cell. Biol. 92: 289-298 (1982).]. Both cell types were grown in DMEM containing 10% FBS and gentamicin ([…]) in a humidified atmosphere of 5% CO2/balanced air or 250 ppm CO/5% CO2/balanced air. After a 2 h pretreatment with either CO or air, LPS ([…]) or sterile saline was added to the culture media and the culture plates were returned to the chamber(s). At various time points, cell plates were removed from the chamber to collect media and/or cells for Western analysis. CO Exposures. Mice or macrophages were exposed to compressed air or 250 ppm CO. For cell culture experiments, 5% CO2 was also present for buffering requirements. CO at a concentration of 1% (10,000 ppm) in compressed air was mixed with compressed air with or without CO2 in a stainless steel mixing cylinder before delivery into the exposure chamber. Flow into the 3.70-ft^2 plexiglass animal chamber was maintained at 12 L/min and into the 1.2 ft^2 cell culture chamber at a flow of 2 L/min. The cell culture chamber was humidified and maintained at 37° C. A CO analyzer (Interscan, Chatsworth, Calif.) was used to measure CO levels continuously in the chambers. Gas samples were taken by the analyzer through a port in the top of the chambers at a rate of 1 L/min and analyzed by electrochemical detection, with a sensitivity of 10-600 ppm. Concentration levels were measured hourly and there were no fluctuations in the CO concentrations once the chamber had equilibrated (approximately 5 min). Animal Experimentation. Mice were prebled from the retroorbital sinus (0.25 ml) and then exposed to CO (250 ppm) or room air for 1 h prior to administration of LPS (1 mg/kg, i.p.), E. coli serotype O127:B8. 1 and 16 h thereafter, they were removed from the exposure apparatus individually and a blood sample was obtained via the retroorbital sinus. After the blood collection, the mice were immediately returned to the exposure chamber. […]
smiles,measurement,setting,value
"Nc1nc2c(nc(Br)n2[C@@H]2O[C@@H]3COP(=O)(O)O[C@H]3[C@H]2O)c(=O)[nH]1 [8-Br-cGMP, reference compound]",TNF-α,with LPS,530 ± 35 pg/mL
same,TNF-α,without LPS,18 ± 6 pg/mL
same,effect on LPS-induced TNF-α production,added to macrophage culture followed by LPS,no effect
